From US20110305784A1, “Fractionated products obtained from gamboge resin, and medical uses of the same” (priority 2010, published 2011)
Converted amounts (≈) assume the structure as drawn. Read-outs that look alike come from different tables or passages of the source.

Assays:
in vitro = conditions: human
Source text: (§1) The in vitro anti-cancer test was primarily used to detect the effect of a candidate drug on cancer cell proliferation. The working principle involved therein is the ability of viable cells to shift alamarBlue (AbD Serotec, UK) from its originally non-fluorescent oxidized state (non-fluorescent, blue) to a reduced form (fluorescent, red) having fluorescence via metabolic reaction. According to the fluorescent data result generated by the alamarBlue reagent thus obtained, the proliferation of the viable cells and cell activity can be quantified for detection.
(§2) In the in vitro anti-cancer tests, a candidate drug was tested at 5 different concentrations of 0.01, 0.1, 1, 10, and 100 μg/ml, and six human cancer cell lines and a normal human cell line were used (see Table 10).

[1] = test system: Human breast adenocarcinoma cell MCF7; assay: cells; conditions: for CC50: MCF7, read-out: LC50 (50% lethal concentration)
Source text: as §1, §2

[2] = test system: Human colon adenocarcinoma cell HT-29; assay: cells; conditions: for CC50: HT-29, read-out: LC50 (50% lethal concentration)
Source text: as §1, §2

[3] = test system: Human hepatocellular carcinoma cell HepG2; assay: cells; conditions: for CC50: HepG2, read-out: LC50 (50% lethal concentration)
Source text: as §1, §2

[4] = test system: Human histocytic lymphoma cell U937; assay: cells; conditions: for CC50: U-937, read-out: LC50 (50% lethal concentration)
Source text: as §1, §2

[5] = test system: Human lung carcinoma cell A549; assay: cells; conditions: for CC50: A549, read-out: LC50 (50% lethal concentration)
Source text: as §1, §2

[6] = test system: Human promyelocytic leukemia cell HL-60; assay: cells; conditions: for CC50: HL-60, read-out: LC50 (50% lethal concentration)
Source text: as §1, §2

[7] = test system: Human umbilical venal epithelial cell (HUVEC); assay: cells; conditions: HUVEC; for IC50: Homo sapiens
Source text: as §1, §2

[8] = MCF7, read-out: IC50 (50% inhibition concentration)
[9] = HT-29, read-out: IC50 (50% inhibition concentration)
[10] = U-937, read-out: IC50 (50% inhibition concentration)
[11] = A549, read-out: IC50 (50% inhibition concentration)
[12] = HL-60, read-out: IC50 (50% inhibition concentration)
[13] = read-out: IC50 (50% inhibition concentration)

For CC(C)=CCC[C@@]1(C)C=Cc2c(O)c3c(c(CC(O)C(C)(C)O)c2O1)O[C@]12C(=C[C@@H]4CC1C(C)(C)OC2(C/C=C(/C)C(=O)O)C4=O)C3=O (some centres unmarked) [Gh-1036, epiformoxanthone F], which CC50 (in vitro) is on record?
The CC50 was 4.8 µg/mL (≈ 7.24 µM).

What about the CC50 [1] of the same molecule?
Its CC50 is 3.8 µg/mL (≈ 5.73 µM).

What about the CC50 [2] of the same molecule?
The CC50 was 12 µg/mL (≈ 18.1 µM).

And the CC50 [3]?
The CC50 was 8.6 µg/mL (≈ 13 µM).

What about the CC50 [4] of the same molecule?
The CC50 was 0.81 µg/mL (≈ 1.22 µM).

What about the CC50 [5] of the same molecule?
Its CC50 is 0.52 µg/mL (≈ 0.785 µM).

And the CC50 [6]?
Its CC50 is 3.1 µg/mL (≈ 4.68 µM).

For CC(C)=CCc1c2c(c(O)c3c1O[C@]14C(=C[C@@H]5CC1C(C)(C)OC4(C/C=C(/C)C(=O)O)C5=O)C3=O)C=C[C@](C)(CCC(O)C(C)(C)O)O2 (some centres unmarked) [Gh-3271, epiformoxanthone J], which CC50 (in vitro) is on record?
Its CC50 is 1.5 µg/mL (≈ 2.26 µM).

What about the CC50 [1] of the same molecule?
Its CC50 is 0.62 µg/mL (≈ 0.935 µM).

What about the CC50 [2] of the same molecule?
Its CC50 is 5.8 µg/mL (≈ 8.75 µM).

And the CC50 [3]?
Its CC50 is 4.6 µg/mL (≈ 6.94 µM).

And the CC50 [4]?
The CC50 was 0.35 µg/mL (≈ 0.528 µM).

What about the CC50 [5] of the same molecule?
The CC50 was 0.51 µg/mL (≈ 0.769 µM).

And the CC50 [6]?
The CC50 was 17.1 µg/mL (≈ 25.8 µM).

Which IC50 [1, 8] does the source give for C=C(C)C1CC[C@]2(C)C[C@H]1c1c(O)c3c(c(CC=C(C)C)c1O2)O[C@]12C(=CC4CC1C(C)(C)O[C@]2(C/C=C(/C)C(=O)O)C4=O)C3=O (some centres unmarked) [Gh-2603-2, gambogellic acid] here?
Its IC50 is 2.2 µg/mL (≈ 3.5 µM).

And the CC50 [1]?
Its CC50 is 4.2 µg/mL (≈ 6.68 µM).

What about the IC50 [2, 9] of the same molecule?
Its IC50 is 1.4 µg/mL (≈ 2.23 µM).

What about the CC50 [2] of the same molecule?
The CC50 was 3.9 µg/mL (≈ 6.2 µM).

What about the IC50 ([3]; HepG2, read-out: IC50 (50% inhibition concentration)) of the same molecule?
The IC50 was 0.65 µg/mL (≈ 1.03 µM).

What about the CC50 [3] of the same molecule?
The CC50 was 3.5 µg/mL (≈ 5.57 µM).

What about the IC50 [4, 10] of the same molecule?
Its IC50 is 1.5 µg/mL (≈ 2.39 µM).

And the CC50 [4]?
The CC50 was 3.6 µg/mL (≈ 5.73 µM).

What about the IC50 [5, 11] of the same molecule?
The IC50 was 0.2 µg/mL (≈ 0.318 µM).

And the CC50 [5]?
Its CC50 is 0.47 µg/mL (≈ 0.748 µM).

What about the IC50 [6, 12] of the same molecule?
Its IC50 is 0.93 µg/mL (≈ 1.48 µM).

What about the CC50 [6] of the same molecule?
Its CC50 is 2.4 µg/mL (≈ 3.82 µM).

And the IC50 [7, 13]?
Its IC50 is 0.14 µg/mL (≈ 0.223 µM).

Which results are given for CC(C)=CCc1c2c(c(O)c3c1O[C@]1(C)CCC4[C@H]3C1C4(C)C)C(=O)C1=CC3CC4C(C)(C)O[C@](C/C=C(/C)C(=O)O)(C3=O)[C@@]14O2 [Gh-2607-B, formoxanthone B]?
IC50 [1, 8]: 0.1 µg/mL (≈ 0.159 µM); IC50 [2, 9]: 0.3 µg/mL (≈ 0.477 µM); CC50 [2]: 1 µg/mL (≈ 1.59 µM); CC50 [3]: 4 µg/mL (≈ 6.36 µM); IC50 [4, 10]: 0.1 µg/mL (≈ 0.159 µM); IC50 [5, 11]: 0.1 µg/mL (≈ 0.159 µM); LC50 (50% lethal concentration) [7]: 1.6 µg/mL (≈ 2.54 µM); IC50 [7, 13]: 0.07 µg/mL (≈ 0.111 µM)

Which results are given for C=C(C)[C@@H]1CC[C@@]2(C)CC1c1c(O)c3c(c(CC=C(C)C)c1O2)O[C@]12C(=C[C@@H]4CC1C(C)(C)O[C@]2(/C=C/C(C)C(=O)O)C4=O)C3=O (stereo partly drawn) [Gh-2507, β-epigambogellic acid]?
IC50 [6, 12]: 0.2 µg/mL (≈ 0.318 µM); LC50 (50% lethal concentration) [7]: 21.0 µg/mL (≈ 33.4 µM)

Which CC50 (in vitro) does the source give for CC(C)=CCC[C@]1(C)C=Cc2c(O)c3c(c(CC(O)C(C)(C)O)c2O1)O[C@]12C(=C[C@@H]4CC1C(C)(C)OC2(C/C=C(/C)C(=O)O)C4=O)C3=O (some centres unmarked) [Gh-1052, formoxanthone F] here?
Its CC50 is 3.1 µg/mL (≈ 4.68 µM).

And the CC50 [1]?
The CC50 was 2.4 µg/mL (≈ 3.62 µM).

What about the CC50 [2] of the same molecule?
The CC50 was 5.7 µg/mL (≈ 8.6 µM).

What about the CC50 [3] of the same molecule?
Its CC50 is 4 µg/mL (≈ 6.04 µM).

What about the CC50 [4] of the same molecule?
The CC50 was 0.69 µg/mL (≈ 1.04 µM).

And the CC50 [5]?
Its CC50 is 2.5 µg/mL (≈ 3.77 µM).

And the CC50 [6]?
Its CC50 is 3.4 µg/mL (≈ 5.13 µM).

For CC(C)=CCC/C(C)=C/Cc1c(O)c(CC=C(C)C)c2c(c1O)C(=O)C1=C[C@@H]3CC4C(C)(C)O[C@](C/C=C(\C)C(=O)O)(C3=O)[C@@]14O2 [Gh-2642, isogambogenic acid], which IC50 [1, 8] is on record?
The IC50 was 3 µg/mL (≈ 4.76 µM).

What about the IC50 [6, 12] of the same molecule?
Its IC50 is 9 µg/mL (≈ 14.3 µM).

And the “LC50 (50% lethal concentration)” value [7]?
The value was 11 µg/mL (≈ 17.4 µM).

For CC(C)=CCC[C@]1(C)C[C@H](O)c2c(O)c3c(c(CC=C(C)C)c2O1)O[C@]12C(=C[C@@H]4CC1C(C)(C)O[C@]2(C/C=C(/C)C(=O)O)C4=O)C3=O (stereo in doubt) [Gh-2641-1, neogambogic acid], which IC50 [1, 8] is on record?
The IC50 was 0.2 µg/mL (≈ 0.309 µM).

And the CC50 [4]?
The CC50 was 1 µg/mL (≈ 1.55 µM).

What about the “LC50 (50% lethal concentration)” value [7] of the same molecule?
Its value is 4.3 µg/mL (≈ 6.65 µM).

With CC(C)=CCC[C@]1(C)C=Cc2c(O)c3c(c(CC=C(C)C)c2O1)O[C@]12C(=C[C@@H]4CC1C(C)(C)OC2(C/C=C(/C)C(=O)O)C4=O)C3=O [Gh-2605, gambogic acid] as the molecule, how does the “LC50 (50% lethal concentration)” value [7] read?
Its value is 1.6 µg/mL (≈ 2.54 µM).

For CC(C)=CCC[C@@]1(C)C=Cc2c(O)c3c(c(CC=C(C)C)c2O1)O[C@]12C(=C[C@@H]4CC1C(C)(C)O[C@]2(C/C=C(/CO)C(=O)O)C4=O)C3=O [Gh-1602, 30-hydroxyepigambogic acid], which IC50 ([1]; MCF7, read-out: IC50 (50% inhibition concentration), MCF-7) is on record?
The IC50 was 0.27 µg/mL (≈ 0.419 µM).

What about the CC50 [1] of the same molecule?
The CC50 was 4 µg/mL (≈ 6.2 µM).

What about the IC50 ([2]; HT-29, read-out: IC50 (50% inhibition concentration), HT-29) of the same molecule?
The IC50 was 0.94 µg/mL (≈ 1.46 µM).

What about the CC50 [2] of the same molecule?
Its CC50 is 4.2 µg/mL (≈ 6.51 µM).

What about the IC50 ([3]; HepG2, read-out: IC50 (50% inhibition concentration), HepG2) of the same molecule?
Its IC50 is 1.3 µg/mL (≈ 2.02 µM).

What about the CC50 [3] of the same molecule?
The CC50 was 3.5 µg/mL (≈ 5.43 µM).

And the IC50 ([4]; U-937, read-out: IC50 (50% inhibition concentration), U937)?
The IC50 was 0.14 µg/mL (≈ 0.217 µM).

What about the CC50 [4] of the same molecule?
Its CC50 is 0.69 µg/mL (≈ 1.07 µM).

And the IC50 ([5]; A549, read-out: IC50 (50% inhibition concentration), A549)?
The IC50 was 0.4 µg/mL (≈ 0.62 µM).

And the CC50 [5]?
Its CC50 is 3.7 µg/mL (≈ 5.74 µM).

And the IC50 ([6]; HL-60, read-out: IC50 (50% inhibition concentration), HL-60)?
Its IC50 is 1 µg/mL (≈ 1.55 µM).

What about the CC50 [6] of the same molecule?
Its CC50 is 3.3 µg/mL (≈ 5.12 µM).

What about the IC50 ([7]; read-out: IC50 (50% inhibition concentration), HUVEC) of the same molecule?
Its IC50 is 0.25 µg/mL (≈ 0.388 µM).

Which “LC50 (50% lethal concentration)” value [7] does the source give for C=C(C)C1CC[C@]2(C)C[C@H]1c1c(O)c3c(c(CC=C(C)C)c1O2)O[C@]12C(=C[C@@H]4CC1C(C)(C)O[C@]2(/C=C/C(C)C(=O)O)C4=O)C3=O (stereo partly drawn) [Gh-2508, β-gambogellic acid] here?
The value was 5.4 µg/mL (≈ 8.59 µM).
